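Test compounds were applied to cells in 96-well plates for 48 hours at 5 doses. TGI denotes the concentration required for complete inhibition of growth.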
Key:
Test in all cases: growth of human tumour cells (NCI), 48 h
HOP-92 NSCLC = test system: HOP-92 NSCLC
SK-MEL-5 melanoma = test system: SK-MEL-5 melanoma
LOX IMVI melanoma = test system: LOX IMVI melanoma
COLO 205 colon = test system: COLO 205 colon
SNB-19 CNS = test system: SNB-19 CNS
HS 578T breast = test system: HS 578T breast
MALME-3M melanoma = test system: MALME-3M melanoma
A549 NSCLC = test system: A549 NSCLC
K-562 leukemia = test system: K-562 leukemia
UACC-257 melanoma = test system: UACC-257 melanoma
SK-MEL-28 melanoma = test system: SK-MEL-28 melanoma
RPMI-8226 leukemia = test system: RPMI-8226 leukemia
SW-620 colon = test system: SW-620 colon
HCT-15 colon = test system: HCT-15 colon
TK-10 renal = test system: TK-10 renal
ACHN renal = test system: ACHN renal
SN12C renal = test system: SN12C renal
NCI-H460 lung = test system: NCI-H460 lung
HT29 colon = test system: HT29 colon
NCI-H23 lung = test system: NCI-H23 lung
NCI-H226 lung = test system: NCI-H226 lung
SK-MEL-2 melanoma = test system: SK-MEL-2 melanoma
MDA-N = test system: MDA-N
SF-268 CNS = test system: SF-268 CNS
UACC-62 melanoma = test system: UACC-62 melanoma
MDA-MB-435 = test system: MDA-MB-435
MCF7 breast = test system: MCF7 breast
OVCAR-8 ovarian = test system: OVCAR-8 ovarian
U251 CNS = test system: U251 CNS
MDA-MB-231 breast = test system: MDA-MB-231 breast
SNB-75 CNS = test system: SNB-75 CNS
OVCAR-5 ovarian = test system: OVCAR-5 ovarian
SF-295 CNS = test system: SF-295 CNS
OVCAR-3 ovarian = test system: OVCAR-3 ovarian
DU-145 prostate = test system: DU-145 prostate
OVCAR-4 ovarian = test system: OVCAR-4 ovarian
M14 melanoma = test system: M14 melanoma
T-47D breast = test system: T-47D breast
786-0 renal = test system: 786-0 renal
IGROV1 ovarian = test system: IGROV1 ovarian
UO-31 renal = test system: UO-31 renal
HCC-2998 colon = test system: HCC-2998 colon
KM12 colon = test system: KM12 colon
RXF 393 renal = test system: RXF 393 renal
NCI-H522 lung = test system: NCI-H522 lung
CCRF-CEM leukemia = test system: CCRF-CEM leukemia
BT-549 breast = test system: BT-549 breast
SR leukemia = test system: SR leukemia
EKVX NSCLC = test system: EKVX NSCLC
HCT-116 colon = test system: HCT-116 colon
A498 renal = test system: A498 renal
CAKI-1 renal = test system: CAKI-1 renal
PC-3 prostate = test system: PC-3 prostate
SF-539 CNS = test system: SF-539 CNS
HOP-62 NSCLC = test system: HOP-62 NSCLC
MOLT-4 leukemia = test system: MOLT-4 leukemia
HL-60(TB) leukemia = test system: HL-60(TB) leukemia
SK-OV-3 ovarian = test system: SK-OV-3 ovarian

In the case of CN1CCN(C(=S)N(C(=O)c2ccco2)C2CCCCC2)CC1, the TGI (HOP-92 NSCLC) is reported as over 100 µM, the TGI (SK-MEL-5 melanoma) is reported as over 100 µM and the TGI (LOX IMVI melanoma) is reported as over 100 µM. For the same compound, the TGI (COLO 205 colon) was over 100 µM, the TGI (SNB-19 CNS) was over 100 µM and the TGI (HS 578T breast) was over 100 µM. The TGI (MALME-3M melanoma) was over 100 µM, the TGI (A549 NSCLC) was over 100 µM and the TGI (K-562 leukemia) was over 100 µM. It also gave a TGI (UACC-257 melanoma) of over 100 µM, a TGI (SK-MEL-28 melanoma) of over 100 µM and a TGI (RPMI-8226 leukemia) of over 100 µM. It also gave a TGI (SW-620 colon) of over 100 µM, a TGI (HCT-15 colon) of over 100 µM and a TGI (TK-10 renal) of over 100 µM. The TGI (ACHN renal) was over 100 µM, the TGI (SN12C renal) was over 100 µM and the TGI (NCI-H460 lung) was over 100 µM. For the same compound, the TGI (HT29 colon) was over 100 µM, the TGI (NCI-H23 lung) was over 100 µM and the TGI (NCI-H226 lung) was over 100 µM. The TGI (SK-MEL-2 melanoma) was over 100 µM, the TGI (MDA-N) was over 100 µM and the TGI (SF-268 CNS) was over 100 µM. For the same compound, the TGI (UACC-62 melanoma) was over 100 µM, the TGI (MDA-MB-435) was over 100 µM and the TGI (MCF7 breast) was over 100 µM. It also gave a TGI (OVCAR-8 ovarian) of over 100 µM, a TGI (U251 CNS) of over 100 µM and a TGI (MDA-MB-231 breast) of over 100 µM. It also gave a TGI (SNB-75 CNS) of over 100 µM, a TGI (OVCAR-5 ovarian) of over 100 µM and a TGI (SF-295 CNS) of over 100 µM. For the same compound, the TGI (OVCAR-3 ovarian) was over 100 µM, the TGI (DU-145 prostate) was over 100 µM and the TGI (OVCAR-4 ovarian) was over 100 µM. The TGI (M14 melanoma) was over 100 µM, the TGI (T-47D breast) was over 100 µM and the TGI (786-0 renal) was over 100 µM. For the same compound, the TGI (IGROV1 ovarian) was over 100 µM, the TGI (UO-31 renal) was over 100 µM and the TGI (HCC-2998 colon) was over 100 µM. It also gave a TGI (KM12 colon) of over 100 µM, a TGI (RXF 393 renal) of over 100 µM and a TGI (NCI-H522 lung) of over 100 µM. For the same compound, the TGI (CCRF-CEM leukemia) was over 100 µM, the TGI (BT-549 breast) was over 100 µM and the TGI (SR leukemia) was over 100 µM.
Work on COC(=O)c1cc(C)ccc1/C=C1\Cc2cccc(C)c2C1=O yielded a TGI (EKVX NSCLC) of over 100 µM, a TGI (HOP-92 NSCLC) of over 100 µM and a TGI (SK-MEL-5 melanoma) of 25.9 µM. For the same compound, the TGI (LOX IMVI melanoma) was 66.2 µM, the TGI (SNB-19 CNS) was over 100 µM and the TGI (HS 578T breast) was over 100 µM. The TGI (MALME-3M melanoma) was 96.9 µM, the TGI (HCT-116 colon) was over 100 µM and the TGI (A549 NSCLC) was over 100 µM. It also gave a TGI (K-562 leukemia) of over 100 µM, a TGI (UACC-257 melanoma) of over 100 µM and a TGI (SK-MEL-28 melanoma) of over 100 µM. It also gave a TGI (RPMI-8226 leukemia) of over 100 µM, a TGI (SW-620 colon) of over 100 µM and a TGI (HCT-15 colon) of over 100 µM. For the same compound, the TGI (TK-10 renal) was over 100 µM, the TGI (ACHN renal) was over 100 µM and the TGI (SN12C renal) was 96 µM. The TGI (NCI-H460 lung) was over 100 µM, the TGI (HT29 colon) was over 100 µM and the TGI (A498 renal) was over 100 µM. For the same compound, the TGI (NCI-H23 lung) was over 100 µM, the TGI (NCI-H226 lung) was over 100 µM and the TGI (MDA-N) was 61.8 µM. It also gave a TGI (SF-268 CNS) of over 100 µM, a TGI (MCF7 breast) of over 100 µM and a TGI (CAKI-1 renal) of over 100 µM. It also gave a TGI (OVCAR-8 ovarian) of 81.4 µM, a TGI (U251 CNS) of over 100 µM and a TGI (PC-3 prostate) of 62.2 µM. For the same compound, the TGI (MDA-MB-231 breast) was over 100 µM, the TGI (SNB-75 CNS) was over 100 µM and the TGI (OVCAR-5 ovarian) was over 100 µM. For the same compound, the TGI (SF-539 CNS) was over 100 µM, the TGI (SF-295 CNS) was over 100 µM and the TGI (OVCAR-3 ovarian) was over 100 µM. It also gave a TGI (DU-145 prostate) of over 100 µM, a TGI (OVCAR-4 ovarian) of over 100 µM and a TGI (M14 melanoma) of over 100 µM. The TGI (T-47D breast) was over 100 µM, the TGI (HOP-62 NSCLC) was over 100 µM and the TGI (MOLT-4 leukemia) was over 100 µM. For the same compound, the TGI (786-0 renal) was over 100 µM, the TGI (IGROV1 ovarian) was over 100 µM and the TGI (HL-60(TB) leukemia) was over 100 µM. It also gave a TGI (UO-31 renal) of over 100 µM, a TGI (HCC-2998 colon) of over 100 µM and a TGI (KM12 colon) of over 100 µM. For the same compound, the TGI (RXF 393 renal) was over 100 µM, the TGI (NCI-H522 lung) was 58.7 µM and the TGI (CCRF-CEM leukemia) was over 100 µM. The TGI (BT-549 breast) was over 100 µM and the TGI (SR leukemia) was over 100 µM.
CSc1ncnc2c1cnn2Cc1cn(CCCCO)nn1 showed a TGI (EKVX NSCLC) of over 100 µM, a TGI (HOP-92 NSCLC) of over 100 µM and a TGI (SK-MEL-5 melanoma) of over 100 µM. The TGI (LOX IMVI melanoma) was over 100 µM, the TGI (COLO 205 colon) was over 100 µM and the TGI (SNB-19 CNS) was over 100 µM. The TGI (HS 578T breast) was over 100 µM, the TGI (MALME-3M melanoma) was over 100 µM and the TGI (HCT-116 colon) was over 100 µM. For the same compound, the TGI (A549 NSCLC) was over 100 µM, the TGI (K-562 leukemia) was over 100 µM and the TGI (UACC-257 melanoma) was over 100 µM. The TGI (SK-MEL-28 melanoma) was over 100 µM, the TGI (RPMI-8226 leukemia) was over 100 µM and the TGI (SW-620 colon) was over 100 µM. For the same compound, the TGI (HCT-15 colon) was over 100 µM, the TGI (TK-10 renal) was over 100 µM and the TGI (ACHN renal) was over 100 µM. The TGI (SN12C renal) was over 100 µM, the TGI (NCI-H460 lung) was over 100 µM and the TGI (HT29 colon) was over 100 µM. The TGI (A498 renal) was over 100 µM, the TGI (NCI-H23 lung) was over 100 µM and the TGI (NCI-H226 lung) was over 100 µM. It also gave a TGI (SK-MEL-2 melanoma) of over 100 µM, a TGI (MDA-N) of over 100 µM and a TGI (SF-268 CNS) of over 100 µM. It also gave a TGI (UACC-62 melanoma) of over 100 µM, a TGI (MDA-MB-435) of over 100 µM and a TGI (MCF7 breast) of over 100 µM. For the same compound, the TGI (CAKI-1 renal) was over 100 µM, the TGI (OVCAR-8 ovarian) was over 100 µM and the TGI (U251 CNS) was over 100 µM. It also gave a TGI (PC-3 prostate) of over 100 µM, a TGI (MDA-MB-231 breast) of over 100 µM and a TGI (SNB-75 CNS) of over 100 µM. For the same compound, the TGI (OVCAR-5 ovarian) was over 100 µM, the TGI (SF-539 CNS) was over 100 µM and the TGI (SF-295 CNS) was over 100 µM. It also gave a TGI (OVCAR-3 ovarian) of over 100 µM, a TGI (DU-145 prostate) of over 100 µM and a TGI (OVCAR-4 ovarian) of over 100 µM. For the same compound, the TGI (M14 melanoma) was over 100 µM, the TGI (T-47D breast) was over 100 µM and the TGI (HOP-62 NSCLC) was over 100 µM. For the same compound, the TGI (MOLT-4 leukemia) was over 100 µM, the TGI (786-0 renal) was over 100 µM and the TGI (IGROV1 ovarian) was over 100 µM. The TGI (SK-OV-3 ovarian) was over 100 µM, the TGI (UO-31 renal) was over 100 µM and the TGI (HCC-2998 colon) was over 100 µM. The TGI (KM12 colon) was over 100 µM, the TGI (RXF 393 renal) was over 100 µM and the TGI (NCI-H522 lung) was over 100 µM. The TGI (CCRF-CEM leukemia) was over 100 µM, the TGI (BT-549 breast) was over 100 µM and the TGI (SR leukemia) was over 100 µM.

From PubChem BioAssay (NCI)
